Experimental findings from ChEMBL document CHEMBL4507274 (2021) are described below.

Experiment [1] deals with RAC-alpha serine/threonine-protein kinase (Homo sapiens) (UniProt P31749). Put plainly: PKBalpha (h) Upstate kinase activity assay. To be noted: Compound concentration 10.0 uM.
Experiment [2] addresses AMP-activated protein kinase, AMPK (Rattus norvegicus) (UniProt P54645+Q09137+P80386+P80385+Q9QZH4+Q6V7V4+D4A7E4). Put plainly: AMPK (r) Upstate kinase activity assay. The format is protein-complex assay. To be noted: Compound concentration 10.0 uM.
Experiment [3] has as its target Angiopoietin-1 receptor (Homo sapiens) (UniProt Q02763). Put plainly: Tie2 (h) Upstate kinase activity assay. To be noted: Compound concentration 10.0 uM.
The target of experiment [4] is T1, Protein kinase C epsilon type (Homo sapiens) (UniProt Q02156).
T1 sequence (whole entry): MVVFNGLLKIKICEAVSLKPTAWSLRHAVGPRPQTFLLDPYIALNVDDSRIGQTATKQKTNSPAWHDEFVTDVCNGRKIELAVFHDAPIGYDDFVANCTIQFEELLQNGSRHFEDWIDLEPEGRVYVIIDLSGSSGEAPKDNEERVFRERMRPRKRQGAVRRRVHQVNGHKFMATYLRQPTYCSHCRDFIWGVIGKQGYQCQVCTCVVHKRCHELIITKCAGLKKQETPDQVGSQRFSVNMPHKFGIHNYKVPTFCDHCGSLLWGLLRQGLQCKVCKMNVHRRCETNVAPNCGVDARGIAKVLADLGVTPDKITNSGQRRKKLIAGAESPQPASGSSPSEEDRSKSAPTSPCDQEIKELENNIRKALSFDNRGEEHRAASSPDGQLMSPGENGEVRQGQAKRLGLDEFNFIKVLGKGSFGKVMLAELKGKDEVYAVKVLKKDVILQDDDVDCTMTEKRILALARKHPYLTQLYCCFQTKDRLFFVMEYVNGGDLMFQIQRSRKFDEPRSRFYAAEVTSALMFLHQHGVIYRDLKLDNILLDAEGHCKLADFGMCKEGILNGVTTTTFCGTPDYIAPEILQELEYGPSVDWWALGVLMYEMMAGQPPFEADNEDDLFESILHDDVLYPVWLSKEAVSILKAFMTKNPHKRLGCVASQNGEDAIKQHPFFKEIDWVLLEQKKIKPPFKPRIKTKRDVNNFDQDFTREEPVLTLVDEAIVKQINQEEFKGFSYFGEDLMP
Put plainly: PKCepsilon (h) Upstate kinase activity assay. To be noted: Compound concentration 10.0 uM.

The target of experiment [5] is T2, Cytoplasmic tyrosine-protein kinase BMX (Homo sapiens) (UniProt P51813).
T2 sequence (whole entry): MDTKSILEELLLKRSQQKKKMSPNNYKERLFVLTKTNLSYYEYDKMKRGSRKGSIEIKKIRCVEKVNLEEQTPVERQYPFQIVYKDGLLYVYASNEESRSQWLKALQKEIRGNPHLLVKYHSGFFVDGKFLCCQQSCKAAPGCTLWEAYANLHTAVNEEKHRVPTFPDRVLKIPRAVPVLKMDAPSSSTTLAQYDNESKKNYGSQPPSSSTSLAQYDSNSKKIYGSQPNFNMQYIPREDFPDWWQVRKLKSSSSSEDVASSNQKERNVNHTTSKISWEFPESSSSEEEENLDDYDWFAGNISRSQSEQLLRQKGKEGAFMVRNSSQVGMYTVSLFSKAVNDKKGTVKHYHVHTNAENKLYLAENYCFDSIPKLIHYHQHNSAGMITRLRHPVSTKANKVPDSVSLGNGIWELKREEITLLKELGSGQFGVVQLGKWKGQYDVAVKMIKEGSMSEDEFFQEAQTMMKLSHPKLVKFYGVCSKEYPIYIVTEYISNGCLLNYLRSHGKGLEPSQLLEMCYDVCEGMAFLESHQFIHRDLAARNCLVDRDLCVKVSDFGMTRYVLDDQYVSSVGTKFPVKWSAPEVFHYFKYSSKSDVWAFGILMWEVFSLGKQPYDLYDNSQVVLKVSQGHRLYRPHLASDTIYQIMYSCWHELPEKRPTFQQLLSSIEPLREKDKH
Nature of the experiment: Bmx (h) Upstate kinase activity assay. To be noted: Compound concentration 10.0 uM.

For the next experiment, the system named is HC-4. Put plainly: Liver HC-4 cell line MDS Pharma Services Proliferation Assay. The format is functional, cell-based, Homo sapiens.
The target of experiment [6] is ALK tyrosine kinase receptor (Homo sapiens) (UniProt Q9UM73). Put plainly: ALK (h) Upstate kinase activity assay. To be noted: Compound concentration 10.0 uM.
A further experiment is filed under the species Rattus norvegicus. To be noted: Compound concentration 10.0 uM.
Experiment [7] has as its target Tyrosine-protein kinase Lck (Homo sapiens) (UniProt P06239). Nature of the experiment: Lck (h) Upstate kinase activity assay. To be noted: Compound concentration 10.0 uM.
Experiment [8] has as its system KATO III stomach cancer cell line. Put plainly: Stomach KATO III cell line MDS Pharma Services Proliferation Assay. The format is functional, cell-based, Homo sapiens.
Experiment [9] has as its system Epidermal growth factor receptor (Homo sapiens), P00533 [UNDEFINED MUTATION]. To be noted: Compound concentration 100.0 nM.
Experiment [10] relates to Epidermal growth factor receptor (Homo sapiens), P00533 [T790M]. To be noted: Compound concentration 100.0 nM.

Chain of Tyrosine-protein kinase Lck (Homo sapiens) (P06239 2-509 limits assumed): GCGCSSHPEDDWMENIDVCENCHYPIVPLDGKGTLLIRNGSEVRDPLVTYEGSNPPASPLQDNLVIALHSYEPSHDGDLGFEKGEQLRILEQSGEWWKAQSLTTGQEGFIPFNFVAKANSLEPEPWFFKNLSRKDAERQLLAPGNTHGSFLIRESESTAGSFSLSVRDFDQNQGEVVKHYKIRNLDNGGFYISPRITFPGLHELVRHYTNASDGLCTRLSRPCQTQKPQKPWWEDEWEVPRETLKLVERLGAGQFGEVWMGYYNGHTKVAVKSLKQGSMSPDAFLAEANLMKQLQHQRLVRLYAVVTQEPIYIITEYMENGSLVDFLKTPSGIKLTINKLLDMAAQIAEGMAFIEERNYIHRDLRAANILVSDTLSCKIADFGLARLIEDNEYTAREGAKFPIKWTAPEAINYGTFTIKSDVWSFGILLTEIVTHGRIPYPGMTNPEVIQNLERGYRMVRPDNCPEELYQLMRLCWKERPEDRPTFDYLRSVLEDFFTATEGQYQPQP
Chain of ALK tyrosine kinase receptor (Homo sapiens) (Q9UM73 19-1620 limits assumed): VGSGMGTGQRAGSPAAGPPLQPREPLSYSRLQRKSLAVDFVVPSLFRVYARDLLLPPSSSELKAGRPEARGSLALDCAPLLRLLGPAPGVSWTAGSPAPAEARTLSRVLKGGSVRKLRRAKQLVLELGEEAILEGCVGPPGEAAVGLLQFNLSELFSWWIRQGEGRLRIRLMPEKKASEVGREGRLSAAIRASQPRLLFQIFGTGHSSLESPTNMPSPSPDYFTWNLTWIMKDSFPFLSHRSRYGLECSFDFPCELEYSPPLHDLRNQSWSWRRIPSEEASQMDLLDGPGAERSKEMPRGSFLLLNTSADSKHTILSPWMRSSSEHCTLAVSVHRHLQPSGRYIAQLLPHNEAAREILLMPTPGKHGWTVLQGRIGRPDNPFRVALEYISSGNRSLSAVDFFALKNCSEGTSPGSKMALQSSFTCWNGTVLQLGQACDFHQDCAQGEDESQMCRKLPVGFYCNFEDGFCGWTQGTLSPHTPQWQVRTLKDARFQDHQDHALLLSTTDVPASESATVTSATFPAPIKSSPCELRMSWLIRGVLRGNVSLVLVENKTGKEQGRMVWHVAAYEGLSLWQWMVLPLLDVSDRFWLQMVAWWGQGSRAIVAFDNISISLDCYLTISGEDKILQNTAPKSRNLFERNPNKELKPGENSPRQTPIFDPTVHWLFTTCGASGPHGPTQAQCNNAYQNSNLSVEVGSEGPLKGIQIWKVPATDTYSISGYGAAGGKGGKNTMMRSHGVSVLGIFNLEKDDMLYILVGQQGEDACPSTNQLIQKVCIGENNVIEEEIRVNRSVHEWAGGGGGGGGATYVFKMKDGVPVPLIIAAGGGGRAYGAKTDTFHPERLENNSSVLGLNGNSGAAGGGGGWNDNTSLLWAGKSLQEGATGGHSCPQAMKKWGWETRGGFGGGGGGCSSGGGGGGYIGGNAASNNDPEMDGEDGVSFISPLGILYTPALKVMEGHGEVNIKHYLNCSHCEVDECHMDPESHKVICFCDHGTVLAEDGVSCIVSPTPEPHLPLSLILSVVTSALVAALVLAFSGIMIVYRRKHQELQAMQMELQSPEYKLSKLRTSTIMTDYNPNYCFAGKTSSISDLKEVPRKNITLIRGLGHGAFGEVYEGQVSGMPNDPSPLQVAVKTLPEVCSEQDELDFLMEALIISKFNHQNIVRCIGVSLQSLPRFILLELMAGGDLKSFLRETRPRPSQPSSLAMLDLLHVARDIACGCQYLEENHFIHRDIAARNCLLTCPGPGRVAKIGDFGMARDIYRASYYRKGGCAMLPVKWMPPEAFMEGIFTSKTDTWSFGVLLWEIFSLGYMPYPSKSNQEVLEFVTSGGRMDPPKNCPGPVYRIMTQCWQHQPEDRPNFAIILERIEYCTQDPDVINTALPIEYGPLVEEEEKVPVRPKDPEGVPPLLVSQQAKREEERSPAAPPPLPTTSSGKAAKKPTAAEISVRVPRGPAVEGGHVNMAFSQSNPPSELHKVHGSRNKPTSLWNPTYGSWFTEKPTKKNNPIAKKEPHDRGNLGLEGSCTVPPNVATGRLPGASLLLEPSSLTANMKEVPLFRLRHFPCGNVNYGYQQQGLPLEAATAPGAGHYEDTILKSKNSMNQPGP
Chain of RAC-alpha serine/threonine-protein kinase (Homo sapiens) (P31749 whole entry): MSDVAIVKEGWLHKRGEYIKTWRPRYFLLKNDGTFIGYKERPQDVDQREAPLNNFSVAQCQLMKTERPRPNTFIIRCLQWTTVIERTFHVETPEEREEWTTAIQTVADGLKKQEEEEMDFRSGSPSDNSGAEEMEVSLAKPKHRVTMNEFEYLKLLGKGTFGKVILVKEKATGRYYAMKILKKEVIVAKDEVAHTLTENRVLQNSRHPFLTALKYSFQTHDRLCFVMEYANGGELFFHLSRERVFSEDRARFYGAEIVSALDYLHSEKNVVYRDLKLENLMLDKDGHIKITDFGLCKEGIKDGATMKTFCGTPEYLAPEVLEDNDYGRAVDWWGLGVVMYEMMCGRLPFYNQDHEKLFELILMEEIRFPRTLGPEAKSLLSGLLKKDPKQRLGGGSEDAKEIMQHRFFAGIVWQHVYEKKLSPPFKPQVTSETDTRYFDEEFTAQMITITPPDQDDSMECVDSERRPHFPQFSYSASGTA
Chain of Angiopoietin-1 receptor (Homo sapiens) (Q02763 whole entry): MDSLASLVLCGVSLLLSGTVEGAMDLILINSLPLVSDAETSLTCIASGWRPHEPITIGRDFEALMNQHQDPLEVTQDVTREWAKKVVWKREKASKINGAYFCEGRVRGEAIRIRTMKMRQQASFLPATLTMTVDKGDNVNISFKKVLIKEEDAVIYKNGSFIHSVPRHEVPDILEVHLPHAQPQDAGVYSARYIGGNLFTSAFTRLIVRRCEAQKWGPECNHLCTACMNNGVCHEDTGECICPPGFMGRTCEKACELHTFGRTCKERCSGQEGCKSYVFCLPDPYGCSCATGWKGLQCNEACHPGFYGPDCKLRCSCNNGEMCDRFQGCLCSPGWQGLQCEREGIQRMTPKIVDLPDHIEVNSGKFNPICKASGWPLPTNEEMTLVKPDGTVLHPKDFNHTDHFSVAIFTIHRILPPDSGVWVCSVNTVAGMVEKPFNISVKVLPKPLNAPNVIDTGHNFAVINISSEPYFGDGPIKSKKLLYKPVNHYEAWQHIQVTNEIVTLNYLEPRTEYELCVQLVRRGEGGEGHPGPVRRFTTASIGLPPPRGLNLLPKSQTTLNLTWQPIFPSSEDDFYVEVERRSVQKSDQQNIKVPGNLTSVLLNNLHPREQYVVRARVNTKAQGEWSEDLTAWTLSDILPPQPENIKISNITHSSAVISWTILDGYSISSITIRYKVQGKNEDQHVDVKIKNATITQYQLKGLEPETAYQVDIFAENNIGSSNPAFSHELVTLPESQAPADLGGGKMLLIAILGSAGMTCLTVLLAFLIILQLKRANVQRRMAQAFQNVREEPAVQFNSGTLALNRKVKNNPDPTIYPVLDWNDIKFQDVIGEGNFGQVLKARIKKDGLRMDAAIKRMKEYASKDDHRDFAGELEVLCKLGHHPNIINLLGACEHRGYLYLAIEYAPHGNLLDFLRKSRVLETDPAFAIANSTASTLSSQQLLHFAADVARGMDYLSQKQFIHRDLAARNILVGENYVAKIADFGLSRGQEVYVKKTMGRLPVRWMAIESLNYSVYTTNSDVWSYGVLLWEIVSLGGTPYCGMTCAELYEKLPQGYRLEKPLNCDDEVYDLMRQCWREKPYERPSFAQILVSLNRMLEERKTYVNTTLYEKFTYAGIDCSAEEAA

For orientation: inhibition means the drop in the measured response relative to a control, in per cent. The IC50 is the concentration that gives 50% inhibition. Broadly, the TGI is the concentration giving total growth inhibition. Lower therefore signals more potent growth arrest. As for `Cc1c[nH]c2nccc(Oc3c(F)cc(Nc4cc(Cl)nc(N)n4)cc3F)c12` [BAY-549], the inhibition in experiment [1] was 84%; in experiment [2], 8%; in experiment [3], 26%; in [4] it was 28%; in experiment [5], 18%; in [6] it was 78%. The inhibition is 24.9% in the experiment filed under Rattus norvegicus and 50% in experiment [7]. Further, the IC50 stood at 2.1 µM with HC-4 (Homo sapiens, HC-4) and 3.2 µM in experiment [8] (Homo sapiens, KATO III). For the same compound, the TGI was 13 µM with HC-4 (Homo sapiens, HC-4) and greater than 100 µM in experiment [8] (Homo sapiens, KATO III). In addition, the CC50 in the experiment on HC-4 (Homo sapiens, HC-4, read-out: LC50 (the source's name)) was 82 µM; in experiment [8] (Homo sapiens, KATO III, read-out: LC50 (the source's name)), greater than 100 µM. For the same compound, the “Mean % growth (n = 2) for 0.1 µM probe concentration” value was 94% in the experiment with HC-4 (± SEM 1 % growth) and 99% in [8] (± SEM 11 % growth). The figures for the “Mean % growth (n = 2) for 0.01 µM probe concentration” value (in the experiment on HC-4 (± SEM 5 % growth); in [8] (± SEM 7 % growth)) were 102% and 98%, respectively. The “Mean % growth (n = 2) for 1.0 µM probe concentration” value in the experiment on HC-4 (± SEM 5 % growth) stood at 59%; in [8] (± SEM 8 % growth) it was 66%. Moreover, the figures for the “Mean % growth (n = 2) for 10.0 µM probe concentration” value (in the experiment with HC-4 (± SEM 8 % growth); in experiment [8] (± SEM 7 % growth)) were 12% and 27%, respectively. For the same compound, the “Mean % growth (n = 2) for 100.0 µM probe concentration” value with HC-4 (± SEM 8 % growth) is -56%; in experiment [8] (± SEM 7 % growth), 19%.

Usually residual activity stands for what remains of the control signal, in per cent. For the compound `Cn1cc(Cl)c2c(Oc3c(F)cc(Nc4cc(Cl)nc(N)n4)cc3F)ccnc21` [BAY-4900], the residual activity in experiment [9] is 77%; in [10] it was 88%.
